Reference: patent EP0359745B1, “GROWTH FACTOR RECEPTOR” (IMPERIAL CANCER RESEARCH TECHNOLOGY LIMITED, priority 1987, dated 1988)
Non-standard residues stand in square brackets, D forms with d. Residues, ends and D or L forms follow the SMILES beside them. No end group written: not given here.

Legend:
GRP receptor [1] = target: T1, GRP receptor (Mus musculus, UniProt P21729); settings: statement in words, earlier work (reference 13); cited from earlier work
T1 construct: Confluent and quiescent cultures of Swiss 3T3 cells were incubated at 15°C; endogenous in cells; host or cells: Swiss 3T3 cells (mouse fibroblasts)

Mr 75000-85000 protein = Mr 75000-85000 protein (Mus musculus, UniProt P21729); experiment: ¹²⁵I-GRP affinity labelling (EGS cross-linking) of the Mr 75000-85000 protein in Swiss 3T3 cells, SDS-PAGE and scanning densitometry; type: binding; design: endogenous in cells; host or cells: Swiss 3T3 cells (mouse fibroblasts); settings: for cross-linking of ¹²⁵I-GRP / level of the Mr 75000-85000 protein (in words): summary of Table 1, saturating concentrations of the other mitogens; for Mr 75000-85000 protein % of control: ¹²⁵I-GRP (0.5 nM), 15°C, 2.5 h, 6 mM EGS, additions: GRP 360 nM, GRP (14-27) 30 nM, bombesin 30 nM, litorin 92 nM, neuromedin B 220 nM, [D-Arg¹,D-Pro²,D-Trp^7,9,Leu¹¹] substance P 100 »M, GRP (1-16) 3230 nM, PDGF 5 nM, EGF 83 nM, vasopressin 1000 nM, insulin 1 »g/ml, phorbol 12,13 dibutyrate 2000 nM, substance P 740 nM, substance K 880 nM, somatostatin 610 nM, neurotensin 600 nM
Experimental: After 2.5 h the cells were washed three times at 15°C with phosphate buffered saline (PBS) ad then incubated for 15 min at 15°C In 1 ml of binding medium, pH 7.4 In the presence of the appropriate cross-linking agent at the concentration indicated. The cross-linking agents (EGS, DSS, DSP and BSCOES) were dissolved in dimethyl sulphoxide immediately prior to use and were added to medium to give a final concentration of dimethylsulphoxide of 1-2%. The cultures were rapidly rinsed twice with PBS at 4°C and solubilized in 0.1ml of 2 x sample buffer 0.2 M Tris-HCl, pH 6.8, 10% (w/v) glycerol, 6% sodium dodecyl sulphate (SDS) (w/v) 4% β-mercaptoethanol (v/v) and 2 mM ethylenediaminetetraacetic acid. Samples were immediately heated at 100°C for 3-5 min and analysed by either one or two-dimensional gel electrophoresis.
Slab gel electrophoresis was performed using 7.5% acrylamide in the separating gel ad 5% in the stacking gel, ad 0.1% SDS (31). After electrophoresis gels were stained, destained and dried down onto paper for autoradiography with Fuji X-ray film (Fuji Photo Film Co. Ltd. Japan). Dried gels were exposed to film for 4-8 days. Two-dimensional gel electrophoresis was performed as described by O'Farrell (32) using isoelectric focusing in the 1st dimension and SDS-polyacrylamide gel electrophoresis (SDS-PAGE) (8% polyacrylamide) in the second dimension. The samples prepared for isoelectric focusing containing 1.4% LKB ampholytes, pH 5-7, plus 0.6% LKD ampholytes, pH 3.5-10, 6M urea, and 2% Nonidet P-40. The Mr 75000-85000 band from autoradiograms was scanned using a Joyce-Loebl double beam densitometer and the areas under specific peaks were measured with a Hewlett-Packard digitizer.
After this time some cells were washed four times with cold (4°C) PBS supplemented with 1 mg/ml BSA, solubilized and total cell associated radioactivity was then determined in a gamma counter. […] The cells were then solubilized and samples were analyzed by SDS-PAGE. After electrophoresis, gels were dried, exposed to film and scanned as described in Materials and Methods. The areas under the individual peaks for the Mr 75000-85000 protein are shown as a function of the concentration of the unlabelled peptide and are expressed as a percentage of the control. […] The level of the Mr 75000-85000 protein expressed in arbitrary units is shown as a function of the concentration of the labelled ligand. Inset: autoradiogram of the gel used for scanning; the Mr 75000-85000 and 160,000 bands are indicated by arrows. All other experimental details were as described in Materials and Methods.
(§1) Figure 4. […] Values are expressed as percentage of the specific binding obtained in the absence of antagonists. […] Each point represents the mean of 3 determinations. […] Specific binding (B) is expressed in pmol/10⁶ cells and is shown in a double-reciprocal plot. Each point represents the mean of duplicate determinations. […] After 2 hours, the cultures were washed twice with binding medium then incubated in 1 ml containing 6 mM ethylene glycol bis (succinimidylsuccinate) (EGS) at pH 7.4 for 15 minutes at 15°C. The cultures were then washed twice with cold phosphate-buffered saline and solubilised in 0.1 ml of 2x sample buffer, then immediately heated at 100°C for 5 minutes and electrophoresed on a 10% polyacrylamide gel.
After the incubation period cultures were treated with 6 mM EGS as described in Materials and Methods. Each value is expressed as a percentage of the level of the Mr 75000-85000 protein obtained with no additons (-). Other experimental details are as described in Materials and Methods.

Swiss 3T3 cells [2] = settings: statement in words, earlier work (reference 13); cited from earlier work
GRP receptor [3] = target: T1, GRP receptor; experiment: specific [¹²⁵I]GRP binding to intact Swiss 3T3 cells
Experimental: (§2) Cell culture procedure (33), assays of DNA synthesis by ³H-thymidine incorporation (34) ad ¹²⁵I-GRP binding to intact cells (13) were performed as described previously.
as §1

Swiss 3T3 cells [4] = experiment: reversal of the inhibition of [¹²⁵I]EGF binding induced by GRP in Swiss 3T3 cells; type: cell-based, mouse; settings: read-out: Half-maximal reversal of inhibition (of [¹²⁵I]EGF binding by GRP); [¹²⁵I]EGF 0.2 nM, GRP 3.6 nM, 1 hour, 37°C
Experimental: (§3) Figure 5. […] Left: Effects of antagonists on [Ca²⁺]i. Quiescent Swiss 3T3 cells grown on Cytodex 2 beads were washed twice with DMEM and incubated for 10 minutes with fura-2 tetracetoxymethyl ester at 1 »m, then washed three times and suspended in 2 ml of electrolyte solution (6) in the fluorimeter at 37°C and stirred. Fluorescence was recorded continuously in a Perkins-Elmer LS5 luminescence spectrometer with an excitation wavelength of 335 nm and emission wavelength of 510 nm. After a period of equilibration, the following additions were made: solvent, S; antagonist A at 5 »m, A, 5 and 20 »m, A, 20; antagonist D at 5»m, D, 5. […] Values are expressed as percentages of the specific binding obtained with [¹²⁵I]EGF alone at 0.2 nM. The non-specific binding was obtained by the addition of 500-fold excess of unlabelled EGF. Each point represents the mean of 6 determinations.

H69 cells = experiment: growth of SCLC cell line in serum-free medium (cell number, Coulter Counter); type: cell-based
Experimental: Figure 6. […] Stock cultures of cell lines H69, H128 and H417 were maintained in RPMI 1640 medium with 10% fetal bovine serum (heat inactivated) in a humidified atmosphere of 10% CO₂:90% air at 37°C. They were passaged every 7 days. Identical growth was obtained in the serum-free medium of RPMI 1640 supplemented with HITES (29) (hydrocortisone, 10 nM; insulin, 5 »g/ml; transferrin, 100 »g/ml; 17β-estradiol, 10 nM; sodium selenite, 30 nM) and 0.25% bovine serum albumin. […] Cell number was determined at intervals over 14 days in a Coulter Counter after disaggregation of cell clumps by syringing through 19G and 21G needles. Each point represents the mean of 3 determinations.
Figure 7. Inhibition of SCLC growth in vitro by [DPro²]spantide and [DPhe⁵]spantide is concentration-dependent. Cultures of H69 cells were washed twice with RPMI 1640 medium then incubated in serum-free medium (as in Figure 6) in the absence (●) or presence of various concentrations of [DPro²]spantide (o,A) and [DPhe⁵]spantide (△,D). Cell number was determined in a Coulter Counter after disaggregation of cell clumps by syringing through 19G and 21 G needles. Samples were incubated for 13 days, when the controls (inset) had achieved 10-fold increase in number, indicated by the arrow. Each point represents the mean (± standard deviation) of 5 determinations.

Swiss 3T3 cells [5] = experiment: GRP-stimulated rise in cytosolic Ca²⁺ concentration (fura-2 fluorescence) in Swiss 3T3 cells; type: cell-based, mouse
Experimental: as §3

Swiss 3T3 cells [6] = experiment: GRP-induced DNA synthesis ([³H]thymidine incorporation) in Swiss 3T3 cells; type: cell-based, mouse; settings: for ability to inhibit mitogenesis stimulated by GRP: substance P antagonists tested at 50 »m, ranking in words
Experimental: as §2
Figure 3. Inhibition of GRP-induced DNA synthesis by [DPro²]spantide (A) and [DPhe⁵]spantide (D). […] After 40 hours DNA synthesis was estimated by [³H]thymidine incorporation into acid-precipitable material. […] Each point represents the mean of duplicate determinations. […] Values are expressed as a percentage of [³H]thymidine incorporation obtained in the absence of antagonists (100% = 8.6 x 10⁵ cpm per dish). Each point represents the mean of 4 determinations.

Chain of Mr 75000-85000 protein (P21729 whole entry): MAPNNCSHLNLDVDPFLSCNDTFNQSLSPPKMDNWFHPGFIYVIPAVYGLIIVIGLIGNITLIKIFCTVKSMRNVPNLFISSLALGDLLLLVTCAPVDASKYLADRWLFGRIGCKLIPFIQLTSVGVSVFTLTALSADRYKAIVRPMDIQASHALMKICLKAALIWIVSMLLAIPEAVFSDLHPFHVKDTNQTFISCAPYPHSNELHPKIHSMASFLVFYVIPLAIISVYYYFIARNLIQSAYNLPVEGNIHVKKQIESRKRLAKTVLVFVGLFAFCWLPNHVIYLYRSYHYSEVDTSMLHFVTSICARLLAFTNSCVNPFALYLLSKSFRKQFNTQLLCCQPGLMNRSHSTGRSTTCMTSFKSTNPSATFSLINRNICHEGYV
T1 sequence (P21729 whole entry): as above

CSCC[C@H](NC(=O)[C@H](CC(C)C)NC(=O)CNC(=O)[C@H](Cc1ccccc1)NC(=O)[C@H](Cc1ccccc1)NC(=O)[C@H](CCC(N)=O)NC(=O)[C@H](CCC(N)=O)NC(=O)[C@@H]1CCCN1C(=O)[C@H](CCCCN)NC(=O)[C@@H]1CCCN1C(=O)[C@@H](N)CCCNC(=N)N)C(N)=O [Substance P]
inhibition of GRP binding to Swiss 3T3 cells (GRP receptor [1]): neither inhibits
cross-linking of ¹²⁵I-GRP / level of the Mr 75000-85000 protein (in words) (Mr 75000-85000 protein): no effect
stimulation of DNA synthesis (Swiss 3T3 cells [2]): nor stimulates DNA synthesis

CC(C)C[C@H](NC(=O)[C@H](CC(C)C)NC(=O)[C@@H](Cc1c[nH]c2ccccc12)NC(=O)[C@H](Cc1ccccc1)NC(=O)[C@@H](Cc1c[nH]c2ccccc12)NC(=O)[C@H](CCC(N)=O)NC(=O)[C@@H](Cc1ccccc1)NC(=O)[C@@H]1CCCN1C(=O)[C@H](CCCCN)NC(=O)[C@@H]1CCCN1C(=O)[C@H](N)CCCN=C(N)N)C(N)=O [[DPhe⁵]spantide, D-Arg-Pro-Lys-Pro-D-Phe-Gln-D-Trp-Phe-D-Trp-Leu-Leu-NH₂] (H-[dR]PKP[dF]Q[dW]F[dW]LL-NH2)
IC50 (Mr 75000-85000 protein; read-out: Half-maximal inhibition (affinity-labelling of the Mr 75000-85000 protein)): 5.5 µM
IC50 (GRP receptor [3]; read-out: Half-maximal inhibition of binding): 2.3 µM

CC(C)C[C@H](NC(=O)[C@H](CC(C)C)NC(=O)[C@@H](Cc1c[nH]c2ccccc12)NC(=O)[C@H](Cc1ccccc1)NC(=O)[C@@H](Cc1c[nH]c2ccccc12)NC(=O)[C@H](CCC(N)=O)NC(=O)[C@@H](Cc1ccccc1)NC(=O)[C@@H]1CCCN1C(=O)[C@H](CCCCN)NC(=O)[C@@H]1CCCN1C(=O)[C@H](N)CCCNC(=N)N)C(N)=O [[DPhe⁵]spantide, D-Arg-Pro-Lys-Pro-D-Phe-Gln-D-Trp-Phe-D-Trp-Leu-Leu-NH₂] (H-[dR]PKP[dF]Q[dW]F[dW]LL-NH2)
EC50 (Swiss 3T3 cells [4]): 8.7 µM
IC50 (H69 cells; H69 cells, serum-free medium, 13 days, read-out: half-maximal effect (inhibition of growth)): 24 µM
potency of Antagonist D over Antagonist A (H69 cells; H69 growth inhibition): more than 5 fold
rise in [Ca²⁺]i caused by the addition of GRP (Swiss 3T3 cells [5]; GRP (1 nM), antagonist at 5 »m): effective
response to PDGF ([Ca²⁺]i) (Swiss 3T3 cells [5]; antagonist at 5 »m, PDGF at 1 nM, specificity): did not prevent
fold more potent than [DPro²]spantide in this assay (Swiss 3T3 cells [5]; prevention of the GRP-induced rise in [Ca²⁺]i): at least 4 fold
affinity of the receptors of [¹²⁵I]GRP (GRP receptor [3]; 10 »m antagonist, double reciprocal plot, number of binding sites unchanged): markedly reduces the affinity
difference in potency (GRP receptor [3]; [DPhe⁵]spantide versus [DPro²]spantide, inhibition of specific [¹²⁵I]GRP binding): 6.1 fold
IC50 (Swiss 3T3 cells [6]; GRP 3.6 nM, 40 hours, Figure 3 right, read-out: Half-maximal inhibition of DNA synthesis): 22 µM
concentration of GRP required to produce half-maximal stimulation of DNA synthesis (Swiss 3T3 cells [6]; antagonist at 20 »m, Figure 3 left): markedly increased
fold more potent than [DPro²]spantide in inhibiting DNA synthesis induced by GRP (Swiss 3T3 cells [6]; ratio of half-maximal concentrations): 5.4 fold
ability to inhibit mitogenesis stimulated by GRP (Swiss 3T3 cells [6]): most potent GRP antagonist

GRP (1-16): the 1-16 amino acid fragment of GRP (amino-terminal fragment) (VPLPAGGGTVLTKMYP; Gastrin-releasing peptide; UniProt P07492 24-39, looked up, fragment)
inhibition of GRP binding to Swiss 3T3 cells (GRP receptor [1]): neither inhibits
cross-linking of ¹²⁵I-GRP / level of the Mr 75000-85000 protein (in words) (Mr 75000-85000 protein): no reduction
Mr 75000-85000 protein % of control (Mr 75000-85000 protein): 93 % of control
stimulation of DNA synthesis (Swiss 3T3 cells [2]): nor stimulates DNA synthesis

GRP (14-27): the 14-27 amino acid fragment of GRP (MYPRGNHWAVGHLM; ends and bridges not checked; UniProt P07492 37-50, looked up, fragment)
Mr 75000-85000 protein % of control (Mr 75000-85000 protein): 0.4 % of control

Neurotensin: unrelated factor
Mr 75000-85000 protein % of control (Mr 75000-85000 protein): 93 % of control

Somatostatin: neuropeptide
cross-linking of ¹²⁵I-GRP / level of the Mr 75000-85000 protein (in words) (Mr 75000-85000 protein): no effect
Mr 75000-85000 protein % of control (Mr 75000-85000 protein): 97 % of control

Spantide
antagonist activity (Swiss 3T3 cells [6]; even at 100 uM): no antagonist activity
ability to inhibit mitogenesis stimulated by GRP (Swiss 3T3 cells [6]): less potent than either A or D

Vasopressin: mitogen for Swiss 3T3 cells
cross-linking of ¹²⁵I-GRP / level of the Mr 75000-85000 protein (in words) (Mr 75000-85000 protein): not substantially affected
Mr 75000-85000 protein % of control (Mr 75000-85000 protein): 94 % of control
